Measurements from PubChem BioAssay AID276 (DTP/NCI, 2004).
Several values for one entry are separate records, joined by “and”; a condition that tells them apart may be missing. Equal entries are not always repeated. Inconclusive results and toxic doses are left out.

Test system: B6C3F1 mice, Lewis lung carcinoma iv, survival T/C
Experiment: NCI In Vivo Anticancer Drug Screen. Data for tumor model Lewis Lung Carcinoma (intravenous) in B6C3F1 mice
Details: endpoint: median survival time, higher = longer survival
Summary of the method: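 T/C ratio derived from survival of compound-treated versus vehicle-treated mice bearing transplantable tumors.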

[1] = dose: 12.5 mg/kg/injection, schedule: Q01DX009 (ip), vehicle: Klucel (hydroxypropylcellulose) (HPC)
[2] = dose: 25.0 mg/kg/injection, schedule: Q01DX009 (ip), vehicle: Klucel (hydroxypropylcellulose) (HPC)
[3] = dose: 50.0 mg/kg/injection, schedule: Q01DX009 (ip), vehicle: Klucel (hydroxypropylcellulose) (HPC)
[4] = dose: 100.0 mg/kg/injection, schedule: Q01DX009 (ip), vehicle: Klucel (hydroxypropylcellulose) (HPC)
[5] = dose: 200.0 mg/kg/injection, schedule: Q01DX009 (ip), vehicle: Klucel (hydroxypropylcellulose) (HPC)
[6] = dose: 1.25 mg/kg/injection, schedule: Q01DX009 (ip), vehicle: saline with Tween-80
[7] = dose: 2.5 mg/kg/injection, schedule: Q01DX009 (ip), vehicle: saline with Tween-80
[8] = dose: 5.0 mg/kg/injection, schedule: Q01DX009 (ip), vehicle: saline with Tween-80
[9] = dose: 6.25 mg/kg/injection, schedule: Q01DX009 (ip), vehicle: saline
[10] = dose: 12.5 mg/kg/injection, schedule: Q01DX009 (ip), vehicle: saline
[11] = dose: 25.0 mg/kg/injection, schedule: Q01DX009 (ip), vehicle: saline
[12] = dose: 6.25 mg/kg/injection, schedule: Q01DX009 (ip), vehicle: Klucel (hydroxypropylcellulose) (HPC)
[13] = dose: 3.12 mg/kg/injection, schedule: Q01DX009 (ip), vehicle: Klucel (hydroxypropylcellulose) (HPC)
[14] = dose: 25.0 mg/kg/injection, schedule: Q01DX009 (ip), vehicle: saline with Tween-80
[15] = dose: 50.0 mg/kg/injection, schedule: Q01DX009 (ip), vehicle: saline with Tween-80
[16] = dose: 100.0 mg/kg/injection, schedule: Q01DX009 (ip), vehicle: saline with Tween-80
[17] = dose: 12.5 mg/kg/injection, schedule: Q01DX009 (ip), vehicle: saline with Tween-80
[18] = dose: 1.56 mg/kg/injection, schedule: Q01DX009 (ip), vehicle: saline with Tween-80
[19] = dose: 3.12 mg/kg/injection, schedule: Q01DX009 (ip), vehicle: saline with Tween-80
[20] = dose: 50.0 mg/kg/injection, schedule: Q01DX009 (ip), vehicle: saline

Oc1c(Cl)cc(Cl)cc1C1N2CCCCC2C2c3cccn3-c3ccccc3N21 (stereo unspecified)
T/C [1]: 106 % of control
T/C [2]: 101 % of control
T/C [3]: 104 % of control
T/C [4]: 95 % of control
T/C [5]: 102 % of control

CCOC(=O)Nc1cc2c(c(N)n1)N=C(c1ccccc1)CN2
T/C [6]: 105 % of control
T/C [7]: 105 % of control
T/C [8]: 100 % of control

O=NN(CCCl)C(=O)NCCO
T/C (dose: 0.78 mg/kg/injection, schedule: Q01DX009 (ip), vehicle: water): 107 % of control
T/C (dose: 3.12 mg/kg/injection, schedule: Q01DX009 (ip), vehicle: water): 184 % of control and 213 % of control and 215 % of control
T/C (dose: 6.25 mg/kg/injection, schedule: Q01DX009 (ip), vehicle: water): 178 % of control and 312 % of control
T/C (dose: 12.5 mg/kg/injection, schedule: Q01DX009 (ip), vehicle: water): 90 % of control

CN(C)CCNc1ccc([N+](=O)[O-])c2sc3ccccc3c(=O)c12
T/C (dose: 3.12 mg/kg/injection, schedule: Q01DX009 (ip), vehicle: saline): 96 % of control
T/C [9]: 108 % of control
T/C [10]: 115 % of control
T/C [11]: 119 % of control

COc1ccc2[nH]c3ccc4cc[n+](CCN5CCC(C6CCN(CC[n+]7ccc8ccc9[nH]c%10ccc(OC)cc%10c9c8c7)CC6)CC5)cc4c3c2c1
T/C [12]: 106 % of control
T/C [1]: 91 % of control and 103 % of control
T/C [2]: 99 % of control

CC(C)CC(=O)NC(C(=O)NC(C(=O)NC(CC(C)C)C(O)CC(=O)NC(C)C(=O)NC(CC(C)C)C(O)CC(=O)O)C(C)C)C(C)C (stereo unspecified)
T/C [13]: 95 % of control
T/C [12]: 99 % of control
T/C [1]: 95 % of control
T/C [2]: 97 % of control
T/C [3]: 97 % of control
T/C [4]: 95 % of control

CCCCCn1c(C)cc(/C=C\c2ccc3cc(C)ccc3[n+]2C)c1C
T/C (dose: 37.5 micrograms/kg/injection, schedule: Q01DX009 (ip), vehicle: Klucel (hydroxypropylcellulose) (HPC)): 107 % of control
T/C (dose: 75.0 micrograms/kg/injection, schedule: Q01DX009 (ip), vehicle: Klucel (hydroxypropylcellulose) (HPC)): 109 % of control
T/C (dose: 150.0 micrograms/kg/injection, schedule: Q01DX009 (ip), vehicle: Klucel (hydroxypropylcellulose) (HPC)): 104 % of control
T/C (dose: 300.0 micrograms/kg/injection, schedule: Q01DX009 (ip), vehicle: Klucel (hydroxypropylcellulose) (HPC)): 97 % of control

N/C(=N\OC(=O)Nc1ccc(CSc2ccc(Cl)cc2)o1)c1ccccn1
T/C [2]: 102 % of control
T/C [3]: 103 % of control
T/C [4]: 99 % of control
T/C [5]: 99 % of control

CN(C)c1nc(N(C)C)nc(N(C)C)n1
T/C [14]: 101 % of control
T/C [15]: 114 % of control
T/C [16]: 109 % of control
T/C (dose: 200.0 mg/kg/injection, schedule: Q01DX009 (ip), vehicle: saline with Tween-80): 111 % of control

O=C1C=C[C@H](O)[C@@]2(CO)O[C@@H]12
T/C (dose: 0.31 mg/kg/injection, schedule: Q01DX009 (ip), vehicle: saline with Tween-80): 101 % of control
T/C (dose: 0.62 mg/kg/injection, schedule: Q01DX009 (ip), vehicle: saline with Tween-80): 101 % of control
T/C [6]: 114 % of control
T/C [7]: 98 % of control
T/C [8]: 102 % of control
T/C (dose: 10.0 mg/kg/injection, schedule: Q01DX009 (ip), vehicle: saline with Tween-80): 93 % of control

[Cl][Pt+2][Cl].[NH-]C1CCC1.[NH2-]
T/C (dose: 0.75 mg/kg/injection, schedule: Q01DX009 (ip), vehicle: saline): 101 % of control
T/C (dose: 3.0 mg/kg/injection, schedule: Q01DX009 (ip), vehicle: saline): 111 % of control
T/C (dose: 6.0 mg/kg/injection, schedule: Q01DX009 (ip), vehicle: saline): 124 % of control

Cc1cc2nc3c(=O)[nH]c(=O)nc-3n(CC(O)C(O)C(O)C(O)CO)c2cc1C (stereo unspecified)
T/C (dose: 25.0 mg/kg/injection, schedule: Q01DX009 (ip), vehicle: suspension in saline): 95 % of control
T/C (dose: 50.0 mg/kg/injection, schedule: Q01DX009 (ip), vehicle: suspension in saline): 110 % of control
T/C (dose: 100.0 mg/kg/injection, schedule: Q01DX009 (ip), vehicle: suspension in saline): 111 % of control
T/C (dose: 200.0 mg/kg/injection, schedule: Q01DX009 (ip), vehicle: suspension in saline): 115 % of control

S=c1nc[nH]c2nc[nH]c12
T/C (dose: 15.0 mg/kg/injection, schedule: Q01DX009 (ip), vehicle: Klucel (hydroxypropylcellulose) (HPC)): 107 % of control
T/C (dose: 30.0 mg/kg/injection, schedule: Q01DX009 (ip), vehicle: Klucel (hydroxypropylcellulose) (HPC)): 116 % of control

CC(=O)N(C)C
T/C (dose: 122.5 mg/kg/injection, schedule: Q01DX009 (ip), vehicle: saline): 88 % of control
T/C (dose: 225.0 mg/kg/injection, schedule: Q01DX009 (ip), vehicle: saline): 95 % of control
T/C (dose: 450.0 mg/kg/injection, schedule: Q01DX009 (ip), vehicle: saline): 110 % of control
T/C (dose: 900.0 mg/kg/injection, schedule: Q01DX009 (ip), vehicle: saline): 100 % of control
T/C (dose: 1800.0 mg/kg/injection, schedule: Q01DX009 (ip), vehicle: saline): 93 % of control
T/C (dose: 3600.0 mg/kg/injection, schedule: Q01DX009 (ip), vehicle: saline): 104 % of control

c1cc(OCC2CO2)ccc1OCC1CO1 (stereo unspecified)
T/C [17]: 96 % of control
T/C [14]: 94 % of control
T/C [15]: 100 % of control
T/C [16]: 96 % of control

CO[C@@H]1[C@H](O)CC[C@]2(CO2)[C@H]1[C@@]1(C)O[C@@H]1CC=C(C)C
T/C [18]: 95 % of control and 101 % of control
T/C [19]: 95 % of control and 103 % of control
T/C (dose: 6.25 mg/kg/injection, schedule: Q01DX009 (ip), vehicle: saline with Tween-80): 93 % of control and 101 % of control
T/C [17]: 101 % of control
T/C [14]: 106 % of control and 115 % of control
T/C [15]: 103 % of control and 107 % of control

O=C(CCCCCCC(=O)ON1C(=O)CCC1=O)ON1C(=O)CCC1=O
T/C [14]: 94 % of control
T/C [15]: 94 % of control
T/C [16]: 93 % of control

C=C(C)/C([O-])=N/[N+](C)(C)CC(O)CCCCCCCCCCCC (stereo unspecified)
T/C (dose: 1.56 mg/kg/injection, schedule: Q01DX001 (ip), vehicle: saline): 96 % of control
T/C (dose: 3.12 mg/kg/injection, schedule: Q01DX001 (ip), vehicle: saline): 104 % of control
T/C (dose: 6.25 mg/kg/injection, schedule: Q01DX001 (ip), vehicle: saline): 98 % of control
T/C (dose: 12.5 mg/kg/injection, schedule: Q01DX001 (ip), vehicle: saline): 109 % of control
T/C (dose: 25.0 mg/kg/injection, schedule: Q01DX001 (ip), vehicle: saline): 103 % of control and 106 % of control
T/C (dose: 50.0 mg/kg/injection, schedule: Q01DX001 (ip), vehicle: saline): 98 % of control and 100 % of control
T/C (dose: 100.0 mg/kg/injection, schedule: Q01DX001 (ip), vehicle: saline): 95 % of control
T/C (dose: 200.0 mg/kg/injection, schedule: Q01DX001 (ip), vehicle: saline): 97 % of control

CCN(C)N=Nc1ccc(C(N)=O)cc1
T/C [12]: 95 % of control
T/C [1]: 104 % of control
T/C [2]: 111 % of control
T/C [3]: 122 % of control

C[CH2][Sn]1([CH2]C)[O]OC(c2ccccc2)[O]1 (stereo unspecified)
T/C (dose: 0.78 mg/kg/injection, schedule: Q01DX009 (ip), vehicle: saline with Tween-80): 97 % of control
T/C [18]: 100 % of control
T/C [19]: 100 % of control
T/C [17]: 95 % of control

COC12C(COC(=O)NCCO)C3=C(C(=O)C(C)=C(N)C3=O)N1CC1NC12 (stereo unspecified)
T/C [13]: 111 % of control
T/C [12]: 102 % of control

O=C(O)C(O)C(O)C1[O][Sb][O]C1C(=O)O (stereo unspecified)
T/C [9]: 103 % of control
T/C [10]: 108 % of control
T/C [11]: 98 % of control
T/C [20]: 108 % of control

Cc1ccc(S(=O)(=O)OCOS(=O)(=O)c2ccc(C)cc2)cc1
T/C [3]: 107 % of control
T/C [4]: 103 % of control
T/C [5]: 108 % of control
T/C (dose: 400.0 mg/kg/injection, schedule: Q01DX009 (ip), vehicle: Klucel (hydroxypropylcellulose) (HPC)): 117 % of control

C=C(C(=O)O)C(N)C(=O)O (stereo unspecified)
T/C [11]: 95 % of control
T/C [20]: 102 % of control
T/C (dose: 100.0 mg/kg/injection, schedule: Q01DX009 (ip), vehicle: saline): 100 % of control
T/C (dose: 200.0 mg/kg/injection, schedule: Q01DX009 (ip), vehicle: saline): 117 % of control
